Data published in patent US20080113899A1, “Iron Supplement and Utilization of the Same” (GEKKEIKAN SAKE CO., LTD., priority 2004, published 2008).
Like-named read-outs stand apart in the source and are kept apart here. Marks after values point to notes of the source that are not given here. Non-standard residues stand in square brackets, D forms with d. Residues, ends and D or L forms follow the SMILES beside them. ξ: configuration not given here. ξOrn(N(OH)Ac) = CC(=O)N(O)CCCC(N)C(=O)O

Columns and labels:
[1] = tested on: SD male rats having iron deficiency anemia; conditions: rat, in vivo
Excerpt: Five four-week-old SD male rats as the control group were fed iron-containing food 1.
The fifteen rats having iron deficiency anemia were subsequently divided into three groups, and were freely fed iron-containing foods 1, 2 and 3, respectively, for 3 weeks. As the iron source, iron-containing food 1 contains ferric citrate; iron-containing food 2 contains water-soluble heme iron; and iron-containing food 3 contains ferrichrysin.
Measurements were made by a usual method of the concentrations of protein, ALT (alanine aminotransferase), AST (aspartate aminotransferase) and creatinine in the serums of the groups of rats which were fed iron-containing food 1 (ferric citrate), food 2 (heme iron) and food 3 (ferrichrysin) after the development of iron deficiency anemia, as well as the rats in the control group which were fed food 1 (ferric citrate) from the beginning.

[2] = tested on: SD male rats having iron deficiency anemia; assay: Measurement of hemoglobin concentration in the blood; type: in vivo, rat; conditions: mean±SD of five rats
Excerpt: The rats in the control group were fed iron-containing food 1 (ferric citrate) during the study.

[3] = for Proportion of the iron concentration after the reaction to the initial iron concentration (1 mg/ml): phytic acid, 37° C., 3 hr, filtrate, cut-off 10000
Protocol: (§1) Ferrichrysin was tested for its reactivity with tannic acid and phytic acid, the typical iron uptake inhibitor, so as to compare its reactivity with that of other iron compounds with these iron uptake inhibitor.
(§2) A 0.6% tannic acid solution and a 0.6% phytic acid solution were also prepared. The pH of each of these solutions was adjusted with hydrochloric acid or sodium hydroxide to 2.0, 4.0, 6.0 or 8.0.
(§3) The iron-compound solutions were mixed with each of the tannic acid and phytic acid solutions at a volume ratio of 1:9, and then the mixtures were incubated at 37° C. for 3 hr, so as to react the iron compounds with each of these iron uptake inhibitor. The resulting solutions were centrifuged at 15000 rpm for 5 min, and then the supernatant of each solution was ultrafiltrated using membranes having a molecular weight cut-off of 10000. The iron concentration in each filtrate was measured by atomic absorption.

[4] = Thermal and pH stabilities of ferrichrysin (absorbance at 430 nm before/after sterilization); type: physicochemical; conditions: 0.25 mg/ml; for Absorbance at 430 nm after sterilization: 20 min, 120° C., 200 kPa
Protocol: Ferrichrysin is known to show an absorption maximum at 430 nm. Ferrichrysin was tested for pH and thermal stabilities utilizing this property.
Ferrichrysin prepared from a rice koji extract in the manner as described above was dissolved in ultrapure water to a concentration of 2.5 mg/ml. The resulting solution was subsequently diluted to give a ferrichrysin concentration of 0.25 mg/ml using each of the following buffers. A glycine-hydrochloric acid buffer was used for a pH 2 or pH 3 buffer; a acetate buffer was used for a pH 4 or pH 5 buffer; a phosphate buffer was used for a pH 6 or pH 7 buffer; a tris-hydrochloric acid buffer was used for a pH 8 buffer; and a glycine-sodium hydroxide buffer was used for a pH 9 or pH 10 buffer.
Each ferrichrysin solution was placed in a screw-cap test tube, and then the test tube was sealed. The solution was subsequently sterilized by a process of steaming under pressure for 20 min at a temperature of 120° C. and a pressure of 200 kPa. The absorbance of each solution at 430 nm was measured prior to and after the sterilization.

[5] = tested on: SD male rats having iron deficiency anemia; assay: Measurement of iron concentration in the liver; type: in vivo, rat; conditions: 3 weeks free feeding, food iron content 35 ppm; mean±SD of five rats
Protocol: Rats of the control group were fed food 1 (ferric citrate) from the beginning, i.e. through to the end. At the end of the experiment, livers were removed after perfusion of saline into the portal vein to exclude the blood; they were weighed and freeze-dried. The dried liver was subsequently incinerated and subjected to atomic absorption, so as to measure the iron concentration in the liver. Further, the water content of the liver was calculated, and the concentration of iron stored in the liver of the body was determined based on the iron concentration in the dried liver and the water content of the liver.

[6] = tested on: SD male rats having iron deficiency anemia; conditions: rat, in vivo; remark: listed apart in the source
Excerpt: Fifteen four-week-old SD male rats were freely fed an iron-deficient food for 35 days to develop iron deficiency anemia with the average blood hemoglobin value reduced to 6.5 g/dl. Five four-week-old SD male rats as the control group were fed iron-containing food 1.
The weight gain in each group is the mean±standard deviation value of the five rats in the group.

[7] = for Proportion of the iron concentration after the reaction to the initial iron concentration (1 mg/ml): tannic acid, 37° C., 3 hr, filtrate, cut-off 10000
Protocol: as §1, §2, §3

[8] = Solubility of ferrichrysin in water compared with other iron compounds; conditions: for Precipitate: 0.1 g in 1 ml, 37° C., 90 min, centrifuged, visual
Protocol: The solubility of ferrichrysin was compared with the solubilities of other iron compounds. Water-soluble heme iron, ferric citrate and ferrichrysin which were used in Example 1 were used as iron compounds. 0.1 g of each of these iron compounds was dissolved in 1 ml of each buffer having a pH of 2 or 7, and then the solutions were incubated at 37° C. for 90 min. A glycine/hydrochloric acid buffer was used as the pH 2 buffer, and a phosphate buffer was used as the pH 7 buffer. The concentration of buffer agent(s) in each buffer was adjusted to 0.1 mol/l. After being incubated, each buffer was centrifuged to visually confirm the presence or absence of precipitate. Further, the iron concentration in the supernatant of each buffer was measured by atomic absorption.

[9] = tested on: SD male rats having iron deficiency anemia; assay: Measurement of serum iron concentration; type: in vivo, rat; conditions: 3 weeks free feeding, food iron content 35 ppm; mean±SD of five rats
Protocol: Serum was prepared from the blood wholly exsanguinated from the rats of each group after the rats had been given their iron-containing food, so as to measure iron concentrations in the serums by a usual method.

CC(=O)N([O-])CCCC1NC(=O)CNC(=O)C(CO)NC(=O)C(CO)NC(=O)C(CCCN([O-])C(C)=O)NC(=O)C(CCCN([O-])C(C)=O)NC1=O.[Fe+3] (stereo not drawn) [Ferrichrysin, ferrichrysin] (cyclo(G[ξOrn(N(OH)Ac)][ξOrn(N(OH)Ac)][ξOrn(N(OH)Ac)]SS); configuration not given here)
ALT [1]: 17.7 ± 2.3^a Karmen
AST [1]: 72.3 ± 3.2^b Karmen
Creatinine [1]: 0.63 ± 0.06 mg/dL
Serum protein [1]: 67.6 ± 4.1 mg/mL
Side effects on the body (liver and kidney function), in words [1]: no harmful side effects
Hemoglobin concentration in the blood, after feeding iron-containing food ([2]; 3 weeks free feeding, food iron content 35 ppm): 14.3 ± 0.3 g/dL
Hemoglobin concentration in the blood, before feeding iron-containing food ([2]; baseline after 35 days iron-deficient food): 6.4 ± 0.9 g/dL
Reactivity with iron-insolubilizing component, in words ([3]; pH 2): low reactivity
Proportion of the iron concentration after the reaction to the initial iron concentration (1 mg/ml) ([3]; pH 2.0): 85.7%
Proportion of the iron concentration after the reaction to the initial iron concentration (1 mg/ml) ([3]; pH 4.0): 100.6%
Proportion of the iron concentration after the reaction to the initial iron concentration (1 mg/ml) ([3]; pH 6.0): 101.8%
Proportion of the iron concentration after the reaction to the initial iron concentration (1 mg/ml) ([3]; pH 8.0): 100.3%
Absorbance at 430 nm before sterilization ([4]; pH 2.0): 0.709
Absorbance at 430 nm after sterilization ([4]; pH 2.0): 0.366
Absorbance at 430 nm before sterilization ([4]; pH 3.0): 0.742
Absorbance at 430 nm after sterilization ([4]; pH 3.0): 0.721
Absorbance at 430 nm before sterilization ([4]; pH 4.0): 0.738
Absorbance at 430 nm after sterilization ([4]; pH 4.0): 0.743
Absorbance at 430 nm before sterilization ([4]; pH 5.0): 0.732
Absorbance at 430 nm after sterilization ([4]; pH 5.0): 0.748
Absorbance at 430 nm before sterilization ([4]; pH 6.0): 0.743
Absorbance at 430 nm after sterilization ([4]; pH 6.0): 0.746
Absorbance at 430 nm before sterilization ([4]; pH 7.0): 0.764
Absorbance at 430 nm after sterilization ([4]; pH 7.0): 0.774
Absorbance at 430 nm before sterilization ([4]; pH 8.0): 0.758
Absorbance at 430 nm after sterilization ([4]; pH 8.0): 0.747
Absorbance at 430 nm before sterilization ([4]; pH 9.0): 0.765
Absorbance at 430 nm after sterilization ([4]; pH 9.0): 0.767
Absorbance at 430 nm before sterilization ([4]; pH 10.0): 0.769
Absorbance at 430 nm after sterilization ([4]; pH 10.0): 0.772
Iron concentration in the liver [5]: 39.3 ± 7.6 ppm
Average food intake [6]: 366.3 g/3 weeks
Body weight gain [6]: 70.1 ± 8.3 g/3 weeks
Reactivity with iron-insolubilizing component, in words ([7]; pH 2): low reactivity
Proportion of the iron concentration after the reaction to the initial iron concentration (1 mg/ml) ([7]; pH 2.0): 80.5%
Proportion of the iron concentration after the reaction to the initial iron concentration (1 mg/ml) ([7]; pH 4.0): 71.8%
Proportion of the iron concentration after the reaction to the initial iron concentration (1 mg/ml) ([7]; pH 6.0): 76.1%
Proportion of the iron concentration after the reaction to the initial iron concentration (1 mg/ml) ([7]; pH 8.0): 81.9%
Water solubility, in words [8]: very high water solubility
Precipitate ([8]; pH 2.0): No
Precipitate ([8]; pH 7.0): No
Serum iron concentration after feeding iron-containing food [9]: 116.7 ± 24.1 µg/dL
